We go through 2 compounds from PMC3433414, “Oral Administration of the Pimelic Diphenylamide HDAC Inhibitor HDACi 4b Is Unsuitable for Chronic Inhibition of HDAC Activity in the CNS In Vivo” (PLoS ONE, 2012).

What is called IC50 is the concentration that gives 50% inhibition. Usually inhibition stands for the percentage by which the read-out fell short of the control.

The target of one data set is T1, HDAC5 (Homo sapiens, UniProt Q9UQL6).
T1 construct: HDAC5 (αα 657–1123; cat # 50005); purchased BPS Bioscience (San Diego, CA) 50005
T1 sequence (Q9UQL6 656-1122): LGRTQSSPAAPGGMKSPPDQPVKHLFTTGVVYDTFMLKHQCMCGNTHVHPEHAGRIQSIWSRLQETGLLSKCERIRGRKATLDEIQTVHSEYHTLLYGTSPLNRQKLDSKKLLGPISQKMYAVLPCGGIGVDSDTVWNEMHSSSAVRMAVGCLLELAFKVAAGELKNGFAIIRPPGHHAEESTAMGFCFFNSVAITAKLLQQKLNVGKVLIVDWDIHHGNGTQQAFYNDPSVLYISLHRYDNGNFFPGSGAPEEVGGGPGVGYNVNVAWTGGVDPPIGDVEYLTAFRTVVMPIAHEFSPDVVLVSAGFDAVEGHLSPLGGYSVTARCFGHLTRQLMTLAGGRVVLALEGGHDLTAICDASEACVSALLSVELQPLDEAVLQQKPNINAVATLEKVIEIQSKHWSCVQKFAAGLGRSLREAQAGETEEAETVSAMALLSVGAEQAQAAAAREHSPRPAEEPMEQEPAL
Briefly: Two-step fluorogenic deacetylase assay, recombinant HDAC5. Type of data set: biochemical. The settings on record: up to 50 µM. From the text: (§1) To assess the biochemical and cellular potency of 4b and its conversion products/metabolites, we utilized the two-step fluorogenic assay which measures the HDAC-mediated catalytic conversion of synthetic acetylated lysine substrates. In brief, on deacetylation of the substrates by HDAC activity, a protease site is unmasked which allows subsequent trypsin-mediated cleavage and release of the highly flourescent AMC molecules in a subsequent step of the assay. The substrates used were Lys_Ac_AMC (Bachem I-1875) for HDAC3 and (Ac)Arg-Gly-Lys(Ac) (Bachem I-1925) for HDAC1 and HDAC2. […] However, the relatively labile and sterically more demanding trifluoracetyl group is readily hydrolyzed by the catalytically less avid Class IIa enzymes, allowing measurement of Class IIa activity using the 2-step fluorogenic assay. […]
(§2) For evaluation of the class selectivity of the compounds, we assessed inhibition against purified recombinant human full length HDAC1 (cat# 50051), HDAC2 (cat# 50052), HDAC3-NcoR2 (cat# 50003) and HDAC8 (cat# 50008): as representative of Class I activity; catalytic domain HDAC4(αα 648–1057), HDAC5 (αα 657–1123; cat # 50005), HDAC7 (αα 518-end; cat # 50007) and HDAC9 (αα 604–1066; cat # 50009) activity: representing all Class IIa activity; and full length HDAC6 (cat#50006): representing Class IIb activity. […]

For another data set, the target named is T2, HDAC9 (Homo sapiens, UniProt Q9UKV0).
T2 construct: HDAC9 (αα 604–1066; cat # 50009); purchased BPS Bioscience (San Diego, CA) 50009
T2 sequence (Q9UKV0 604-1066 isoform Q9UKV0-5): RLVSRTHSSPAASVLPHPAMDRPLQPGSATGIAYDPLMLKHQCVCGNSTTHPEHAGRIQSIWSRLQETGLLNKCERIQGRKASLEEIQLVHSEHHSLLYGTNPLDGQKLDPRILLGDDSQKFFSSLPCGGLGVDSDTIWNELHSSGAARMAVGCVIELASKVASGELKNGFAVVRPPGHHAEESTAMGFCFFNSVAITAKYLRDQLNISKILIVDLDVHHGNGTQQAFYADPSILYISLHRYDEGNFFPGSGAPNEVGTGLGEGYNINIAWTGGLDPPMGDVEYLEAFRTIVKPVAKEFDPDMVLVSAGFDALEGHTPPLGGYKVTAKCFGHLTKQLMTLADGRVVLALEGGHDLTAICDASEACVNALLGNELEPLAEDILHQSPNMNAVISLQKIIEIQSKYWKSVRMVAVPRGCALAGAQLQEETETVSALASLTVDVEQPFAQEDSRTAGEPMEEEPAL
Briefly: Two-step fluorogenic deacetylase assay, recombinant HDAC9. Particulars: up to 50 µM. Type of data set: biochemical.
Source text: as §1, §2

The test system of data set [1] is histone acetylation in mouse brain. Kind of data set: Histone acetylation in brain tissue (central pharmacodynamics). The settings on record: 150 mg/kg po bid, five consecutive days; 1 h post last dose.
Procedure: Cortical tissue from the mice was assessed using specific antibodies for increases in acetylation of specific lysine residues on Histones H3 (H3K4, H3K9, H3K14) and H4 (H4K5) as well as global acetylation of H3 (Ac-H3) and H4 (Ac-H4). The acetylation level was normalized to total H3 and H4 expression level. The samples from the rest of the brain were analyzed for terminal 4b levels at the time of sacrifice. […] Mouse brains were harvested, dissected, immediately frozen in liquid nitrogen and stored at −80°C. Mouse brain tissue was homogenized (polytron homogenizer, 20 s) in 2 volumes of histone extraction buffer (1×PBS, 5% Triton X-100 (v/v), 3 mM DTT, 1 mM orthovanadate, 5 mM NaF, 1 mM PMSF, 5 mM Na Butyrate, Roche complete protease inhibitor tablet) and centrifuged at 900 g for 8 min at 4°C. The resulting pellet was washed twice in 1 ml of histone extraction buffer before being re-suspended in 2–3 volumes of 0.2 M HCl. Samples were then vortexed briefly and left to shake vigorously for 3 h at 4°C using a VXR Vibrax 1.5 ml polypropylene tube shaker (IKA). After shaking, samples were centrifuged at 900 g for 8 min at 4°C and the resulting supernatant was retained and neutralized with 0.2 volumes of 1 M NaOH.
Another data set deals with BZD (central). Briefly: Cerep binding, agonist radioligand. Particulars: 10 μM. From the text:
(§3) In addition to the HDAC profiling performed, we also queried 4b for any apparent potential off-target effects, which could complicate any finding of efficacy or adverse events in vivo due to ‘polypharmacy’. This was accomplished by screening against a ‘diversity panel’ of 72 binding and 29 enzyme assays, comprised of roughly equal numbers of selective central and peripheral therapeutically relevant targets (Cerep Diversity Profile). This panel included representative targets from diverse enzyme families, G protein coupled receptors, steroid nuclear receptors, voltage- and ligand-gated ion channels. While not totally inclusive, it is a useful tool for discovery compounds to assess their viability as proof of concept molecules to specifically query a particular target. 4b was initially screened at 10 µM in duplicate. The full set of results is provided as Table S1. […] This clean in vitro profile was considered acceptable to proceed to ADME and pharmacokinetic studies.

A short description of data set [2]: Stability in serum albumin. Type of data set: in vitro ADME. How it is done:
Incubations of test compound (5 µM initial concentration, n = 2) were carried out with pooled mouse plasma or BSA (45 mg/mL in 0.1 M phosphate buffered saline). The incubations were performed at 37°C. Samples (50 µL) were obtained from the incubation at 0, 10, 30, 120, 240, 360 and 1440 min, and added to 150 µL of acetonitrile containing carbamazepine as analytical internal standard to terminate the reaction. Samples were centrifuged and the supernatant fractions analysed by LC-MS/MS.

The target in the next data set is T3, human recombinant HDAC2 (Homo sapiens, UniProt Q92769).
T3 construct: purified recombinant human full length HDAC1 (cat# 50051), HDAC2 (cat# 50052); purchased BPS Bioscience (San Diego, CA) 50052
T3 sequence (Q92769 whole entry): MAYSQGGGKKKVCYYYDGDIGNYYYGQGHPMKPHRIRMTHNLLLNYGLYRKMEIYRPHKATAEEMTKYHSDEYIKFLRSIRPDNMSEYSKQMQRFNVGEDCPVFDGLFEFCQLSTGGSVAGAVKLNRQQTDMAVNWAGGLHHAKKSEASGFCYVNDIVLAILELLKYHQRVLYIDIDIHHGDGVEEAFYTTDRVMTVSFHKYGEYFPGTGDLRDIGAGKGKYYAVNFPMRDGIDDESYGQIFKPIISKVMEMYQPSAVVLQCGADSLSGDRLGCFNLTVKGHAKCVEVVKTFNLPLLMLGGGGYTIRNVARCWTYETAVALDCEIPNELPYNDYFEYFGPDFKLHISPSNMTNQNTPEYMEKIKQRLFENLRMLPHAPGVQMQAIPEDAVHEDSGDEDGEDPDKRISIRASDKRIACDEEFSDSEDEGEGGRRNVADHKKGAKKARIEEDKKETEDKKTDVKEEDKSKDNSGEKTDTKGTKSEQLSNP
Kind of data set: Two-step fluorogenic deacetylase assay, recombinant HDAC2. Type of data set: biochemical.
Source text: as §1, §2

For another data set, the target named is T4, human recombinant HDAC1 (Homo sapiens, UniProt Q13547).
T4 construct: purified recombinant human full length HDAC1 (cat# 50051); purchased BPS Bioscience (San Diego, CA) 50051
T4 sequence (Q13547 whole entry): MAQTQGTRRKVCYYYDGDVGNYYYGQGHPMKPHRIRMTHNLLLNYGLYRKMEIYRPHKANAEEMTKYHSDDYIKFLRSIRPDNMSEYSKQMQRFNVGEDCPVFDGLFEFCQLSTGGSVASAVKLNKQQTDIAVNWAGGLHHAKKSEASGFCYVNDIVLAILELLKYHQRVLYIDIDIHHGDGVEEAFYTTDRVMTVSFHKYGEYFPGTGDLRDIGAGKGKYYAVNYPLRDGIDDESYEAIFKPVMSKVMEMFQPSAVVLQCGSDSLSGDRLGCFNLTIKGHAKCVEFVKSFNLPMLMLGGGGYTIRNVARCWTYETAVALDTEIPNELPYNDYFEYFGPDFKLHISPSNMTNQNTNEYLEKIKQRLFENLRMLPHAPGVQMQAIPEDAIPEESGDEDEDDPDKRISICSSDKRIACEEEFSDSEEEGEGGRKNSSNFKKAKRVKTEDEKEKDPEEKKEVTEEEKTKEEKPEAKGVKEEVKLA
Kind of data set: Two-step fluorogenic deacetylase assay, recombinant HDAC1. Type of data set: biochemical.
Source text: as §1, §2

The target of the next data set is T5, ETA (h) (Homo sapiens, UniProt P25101).
T5 construct: purchased Cerep (Diversity Profile)
T5 sequence (P25101 21-427): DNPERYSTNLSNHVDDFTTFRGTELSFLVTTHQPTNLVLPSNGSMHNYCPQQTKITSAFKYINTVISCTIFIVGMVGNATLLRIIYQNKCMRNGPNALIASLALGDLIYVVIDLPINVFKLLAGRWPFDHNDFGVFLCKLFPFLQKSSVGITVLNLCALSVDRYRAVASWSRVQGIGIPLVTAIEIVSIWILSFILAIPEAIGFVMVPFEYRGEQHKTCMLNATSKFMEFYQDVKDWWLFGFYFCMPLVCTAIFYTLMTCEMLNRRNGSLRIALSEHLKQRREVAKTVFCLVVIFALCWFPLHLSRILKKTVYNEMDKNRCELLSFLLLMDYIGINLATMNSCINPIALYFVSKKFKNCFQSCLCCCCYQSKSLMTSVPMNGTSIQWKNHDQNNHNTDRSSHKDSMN
Briefly: Cerep binding, agonist radioligand. Particulars: read-out: % inhibition of control specific binding.
Source text: as §3

Molecules are shown by their SMILES.

Consider `Nc1ccccc1NC(=O)CCCCCC(=O)Nc1ccccc1` [Compound 4b], for which the “activity against HDAC5” value on HDAC5 was “No activity”. The “activity against HDAC9” value at HDAC9 is listed as “No activity”. Also, in data set [1], the “histone acetylation in cortical tissue (H3K4, H3K9, H3K14, H4K5, Ac-H3, Ac-H4)” value was “failed to enhance histone acetylation”. For the same compound, in the data set on BZD (central), the “% inhibition of control specific binding” value stood at 4%. Also, the “stability in serum albumin incubations” value in data set [2] is recorded as “stable”. The IC50 at human recombinant HDAC2 is 2230 nM; at human recombinant HDAC1 it was 1510 nM.
As to `O=C(CCCCCc1nc2ccccc2[nH]1)Nc1ccccc1` [Compound C1, 6-(1-H-benzo[d]imidazol-2-yl)-N-phenylhexanamide], at ETA (h), the inhibition at 10 µM was 2%.
